What was measured:
OCI-AML5 cells = assay: Inhibition of OCI-AML5 cell proliferation (CellTiter-Glo); format: cell-based; conditions: Homo sapiens, OCI-AML-5; OCI-AML5 cells (SOS1 N233Y mutation), 120 hours
Description: The following method was used to determine the influence of the compounds of the present invention on OCI-AML5 cells proliferation. OCI-AML5 cells (containing SOS1 N233Y mutation) were purchased from Nanjing Kebai Biotechnology Co., Ltd. and cultured in MEMα medium containing 10% fetal bovine serum, 100 U penicillin, and 100 μg/mL streptomycin. The activities of the cells were determined by CellTiter-Glo® Luminescent Cell Viability Assay Kit (Promega, Art. No. G7573).
The experimental method was operated according to the steps in the kit instruction, which were briefly described as follows: the test compounds were first dissolved in DMSO to prepare storage solutions of 10 mM, and then diluted with culture mediums to prepare test samples. The final concentrations of the compounds were 10000 nM to 0.15 nM. Cells in logarithmic phase were inoculated in a 96-well cell culture plate with 1,000 cells per well, after cultured overnight in 5% CO2 incubator at 37° C., the test compounds were added to the incubator to continue the culture for 120 hours. After the culture was completed, 50 μL of CellTiter-Glo detection solution was added to each well, shaken for 5 minutes and then stood for 10 minutes. Then, a Luminescence mode was used to read the luminescence values of each well of the samples on a microplate reader.

[1] = Pharmacokinetic evaluation in ICR mice; format: in vivo; conditions: male, mouse, plasma, PO 10 mg/kg; for AUC(0-t): read-out: Area under curve AUC0-t; for half-life: read-out: Half-life T1/2 (converted); for Cmax: read-out: Plasma concentration Cmax
From the text: (§1) ICR normal mice were used as test animals, and LC/MS/MS was used to determine the drug concentrations at different moments in plasma of ICR mice by intragastric administration. The pharmacokinetic behavior of the compounds of the present invention in ICR mice was studied to evaluate the pharmacokinetic characteristics of the above compounds.
Compound 4, Compound 26 and Compound 32.
ICR mice, male, 27.8-38 g, were purchased from Zhejiang Vital River Laboratory Animal Technology Co., Ltd.
An appropriate amount of the compound was weighed, and DMA:30% Solutol HS-15:Saline=5:5:90 (v/v/v) was used as the solvent to prepare a fully dissolved solution, and then administered to obtain a 1 mg/mL colorless solution.
The ICR mice in the intragastric group of each compound to be tested (nine mice in each group) were fasted overnight followed by intragastric administration (administration dosage was 10 mg/kg and the administration volume was 10 mL/kg), and ate 4 hours after administration.
0.1 mL of blood was collected via orbit before administration and 0.25 hour, 0.5 hour, 1 hour, 2 hours, 4 hours, 8 hours, 12 hours, and 24 hours after administration, and placed in EDTA-K2 anticoagulant tubes. The collected blood samples were placed on ice, and plasma was separated by centrifugation (centrifugation condition: 1500 g, 10 minutes). The collected plasma samples were stored at −40˜−20° C. before analysis.
(§2) LC-MS/MS was used to determine the content of the compound to be tested in mouse plasma after intragastric administration.

[2] = Pharmacokinetic evaluation in Balb/c mice; format: in vivo; conditions: male, mouse, plasma, PO 10 mg/kg; for AUC(0-t): read-out: Area under curve AUC0-t; for half-life: read-out: Half-life T1/2 (converted); for Cmax: read-out: Plasma concentration Cmax
From the text: as §1, with “Balb/c normal” for “ICR normal”, “of balb/c” for “of ICR”, “in Balb/c” for “in ICR”
Compound 27 and Compound 30.
Nine Balb/c normal mice, male, were evenly divided into 3 groups, with 3 mice in each group, purchased from Zhejiang Vital River Laboratory Animal Technology Co., Ltd.
An appropriate amount of the compound was weighed, and DMA:30% Solutol HS-15:Saline=5:5:90 (v/v/v) was used as the solvent to prepare a fully dissolved solution with a concentration of 1 mg/mL.
The mice in the intragastric group of each compound to be tested (nine mice in each group) were fasted overnight followed by intragastric administration (administration dosage was 10 mg/kg and the administration volume was 10 mL/kg), and ate 4 hours after administration.
0.1 mL of blood was collected via jugular vein before administration and 0.25 hour, 0.5 hour, 1 hour, 2 hours, 4 hours, 6 hours, 8 hours, and 24 hours after administration, and placed in 0.1% sodium heparin anticoagulant test tubes. The collected blood samples were placed on ice, and plasma was separated by centrifugation (centrifugation condition: 7000 g, 5 minutes). The collected plasma samples were stored at −80° C. before analysis.
as §2

p-ERK1/2 in DLD-1 cells = assay: Inhibition of p-ERK1/2 in DLD-1 cells (Cisbio Advanced phospho-ERK1/2 kit); format: cell-based; conditions: Homo sapiens; DLD-1 cells (KRAS G13D mutation), hEGF 5 nM stimulation; read-out: IC50 (nM) Inhibition on p-ERK½ in DLD-1 cells
From the text: The following method was used to determine the inhibition activities of the compounds of the present invention on p-ERK1/2 in DLD-1 cells. The Advanced phospho-ERK1/2 (Thr202/tyr2O4) kit (Art. No. 64AERPEH) from Cisbio was used in this method. Please refer to the kit instruction for detailed experimental operations. DLD-1 cells (containing KRAS G13D mutation) were purchased from the Cell Resource Center of Shanghai Institutes for Biological Sciences, Chinese Academy of Sciences.
The experimental process can be briefly described as follows: DLD-1 cells were cultured in RPMI 1640 complete medium containing 10% fetal bovine serum, 100 U penicillin, 100 μg/mL streptomycin and 1 mM Sodium Pyruvate. DLD-1 cells were plated in a 96-well plate at 30,000 cells per well, after cultured overnight in 5% CO2 incubator at 37° C. with complete culture medium. The test compounds were dissolved in DMSO to prepare storage solutions of 10 mM, and then diluted with RPMI 1640 basic mediums. 90 μL of RPMI 1640 basic mediums containing the test compounds at the corresponding concentration were added to each well. The final concentrations of the test compounds in the reaction system were 10,000 nM to 0.15 nM, and were placed in a cell culture incubator for 3 hours and 40 minutes. Subsequently, 10 μL of hEGF (purchased from Roche, Art. No. 11376454001) prepared with RPMI 1640 basic medium was added to a final concentration of 5 nM, and placed in the incubator for culturing for 20 minutes. The cell supernatant was discarded, and the cells were washed with PBS on ice-bath. Then, 45 μl of 1× cell phospho/total protein lysis buffer (component of Advanced phospho-ERK1/2 kit) was added to each well for lysis. The 96-well plate was placed on ice for 0.5 hours to lyse, and then the lysate was detected according to the instruction of the Advanced phospho-ERK1/2 (Thr202/tyr2O4) kit. Finally, the microplate reader was used in […] mode to measure the fluorescence intensity of each well emitting wavelengths of 620 nm and […] under the excitation wavelength of 304 nm, and the fluorescence intensity ratio 665/620 in each well was calculated. By comparing with the fluorescence intensity ratio of a control group (0.1% DMSO), the percentage inhibition rates of the test compounds at each concentration were calculated, and the IC50 values of the compounds were obtained by performing nonlinear regression analysis with logarithmic values of the compound concentration-inhibition rate by GraphPad Prism 5 software, which can be seen in Table 3.

Structure (SMILES) | IC50 (OCI-AML5 cells) [nM] | AUC(0-t) [1] [ng·h/mL] | half-life [1] [h] | Cmax [1] [ng/mL] | AUC(0-t) [2] [ng·h/mL] | half-life [2] [h] | Cmax [2] [ng/mL] | IC50 (p-ERK1/2 in DLD-1 cells) [nM]
CC(=O)c1cc2nc(C)nc(N[C@H](C)c3cccc(C#N)c3C)c2cc1N1CCC2(CC1)COC2 [Compound 26, (R)-3-(1-((7-acetyl-2-methyl-6-(2-oxa-7-azaspiro[3.5]nonan-7-yl)quinazolin-4-yl)amino)ethyl)-2-methylbenzonitrile] | 17.4 | 7700 | 1.98 | 2830 |  |  |  | 
COc1cc2nc(C)nc(N[C@H](C)c3cccc(C#N)c3C)c2cc1N1CCC(N2CCN(C(C)=O)CC2)CC1 [Compound 27, (R)-3-(1-((6-(4-(4-acetylpiperazin-1-yl)piperidin-1-yl)-7-methoxy-2-methylquinazolin-4-yl)amino)ethyl)-2-methylbenzonitrile] |  |  |  |  | 4660 | 4.91 | 1150 | 31.2
CCOC(=O)N1CCN(c2cc3c(N[C@H](C)c4cccc(C#N)c4C)nc(C)nc3cc2OC)CC1 [Compound 30, ethyl (R)-4-(4-((1-(3-cyano-2-methylphenyl)ethyl)amino)-7-methoxy-2-methylquinazolin-6-yl)piperazine-1-carboxylate] |  |  |  |  | 10800 | 0.79 | 4660 | 
COc1cc2nc(C)nc(N[C@H](C)c3cccc(C#N)c3C)c2cc1C1(OC)CCN(C(C)=O)CC1 [Compound 32, (R)-3-(1-((6-(1-acetyl-4-methoxypiperidin-4-yl)-7-methoxy-2-methylquinazolin-4-yl)amino)ethyl)-2-methylbenzonitrile] |  | 22100 | 2.29 | 5610 |  |  |  | 
